Data on twelve molecules can be found in ChEMBL document CHEMBL4725254, “Irregularly Bridged Epipolythiodioxopiperazines and Related Analogues: Sources, Structures, and Biological Activities” (J Nat Prod, 2020).

The subject of assay [1] is Human immunodeficiency virus. Briefly: Antiviral activity against HIV. In kind it is functional, organism-based. Conditions: Human immunodeficiency virus 1.
A further assay concerns HepG2. The experiment in a line: Growth inhibition of human HepG2 cells. In kind it is functional.
The subject of a further assay is LNCaP. Briefly: Antitumor activity against human LNCaP cells. It is filed as functional, cell-based.
In the next assay the test system is CWR22R. The experiment in a line: Antitumor activity against human CWR22R cells. It is filed as functional, cell-based. Conditions: 22Rv1.
In the next assay the test system is PC-3. Briefly: Antitumor activity against human PC-3 cells. It is filed as functional, cell-based.
Assay [2] is described as follows: […] activity against Eupenicillium abidjanum IFO 8939. In kind it is functional. The conditions noted are these: Penicillium abidjanum.
The nature of assay [3]: Cytotoxicity against mouse NS-1 cells after 72 hrs by microtitre plate assay. It is filed as functional, cell-based. Conditions: NS1, 72 h.
The test system of a further assay is Jurkat. Briefly: Cytotoxicity against human Jurkat cells after 72 hrs by microtitre plate assay. It is filed as functional, cell-based.

Values after ≈ are worked out from the molar mass of the structure shown.

As to `CS[C@@]12C[C@H]3C(=O)CC[C@H](O)[C@H]3N1C(=O)[C@@]13C[C@H]4C(=O)C[C@@H](S1)[C@H](O)[C@H]4N3C2=O` [EPICOCCIN O], the midpoint of inhibition in assay [1], the IC50, lay at 10 µM.
For the molecule `CS[C@@]12CC3=CC=C[C@H](O)[C@H]3N1C(=O)[C@@]13C[C@@H]4[C@@H]([C@@H](O)[C@@H](C[C@@H]4O)S1)N3C2=O`, in assay [1], the 50% inhibitory concentration (IC50) is 10 µM.
`CSC1c2ccccc2O[C@]12C(=O)N1O[C@]3(CCC=CC3=O)[C@@H](O)C1(SC)C(=O)N2C` (stereo not given in full): halving of growth in the assay with HepG2 (GI50) required 8 µM.
For the molecule `COc1ccc([C@H]2SS[C@@]34C[C@]5(O)[C@H](Cl)C=C[C@@H](O)[C@@H]5ON3C(=O)[C@@H]2N(C)C4=O)c(O)c1OC`, the results for the IC50 with LNCaP, with CWR22R and with PC-3 were 1.8 µM, 0.51 µM and 5.1 µM, respectively.
In the case of `CS[C@@]12CC3=CC=C[C@H](O)[C@H]3N1C(=O)[C@@]13C[C@H]4C(=O)C[C@@H](S1)[C@H](O)[C@H]4N3C2=O`, inhibition in assay [1] was half-maximal at 10 µM (IC50).
For `CS[C@@]12C[C@H]3C(=O)CC[C@H](O)[C@H]3N1C(=O)[C@@]13C[C@@H]4[C@@H]([C@@H](O)C=C[C@@H]4S1)N3C2=O`, in assay [1], inhibition was half-maximal at 10 µM (IC50).
Molecule `COc1ccc([C@H]2SS[C@@]34C[C@]56O[C@H]5C=C[C@@H](O)[C@@H]6ON3C(=O)[C@@H]2N(C)C4=O)c(O)c1OC` returned an MIC in assay [2] of 10 µg/mL (≈ 20.2 µM).
In the case of `COc1ccc2cc(NC(=O)[C@@]34C[C@]5(O)[C@@H](C=C[C@@H](O)[C@@H]5ON3)SS4)c(=O)oc2c1OC`, the results for the IC50 (in assay [3]; in the assay on Jurkat) were 10 µM and 1.3 µM, respectively.
In assay [1], `CS[C@@]12CC3=CC=C[C@H](O)[C@H]3N1C(=O)[C@@]13C[C@H]4C(=O)C[C@@H](SS1)[C@H](O)[C@H]4N3C2=O` registered an IC50 of 16 µM.
Molecule `CS[C@@]12C[C@H]3C(=O)CC[C@H](O)[C@H]3N1C(=O)[C@@]13C[C@@H]4[C@@H]([C@@H](O)[C@@H](C[C@@H]4O)S1)N3C2=O` yielded an IC50 in assay [1] of 10 µM.
Same read-out and setting: to `CS[C@@]12CC3=CC=C[C@H](O)[C@H]3N1C(=O)[C@]13C[C@H]4C(=O)[C@H](C[C@H](O)[C@H]4N1C2=O)S3` belongs 10 µM.
In the case of `COc1ccc([C@H]2SS[C@@]34C[C@]5(O)[C@H](Cl)C=C[C@@H](O)[C@@H]5ON3C(=O)[C@@H]2NC4=O)c(O)c1OC`, in the assay on Jurkat, it took 5.1 µM to reach half-maximal inhibition (IC50).
